Several values for one entry are separate records, joined by “and”; a condition that tells them apart may be missing. Equal values may be shown once.
Key:
PRMT5/MEP50 = PRMT5/MEP50 (Homo sapiens, UniProt O14744); experiment: Radioisotope-based methyltransferase assay (selectivity)
[1] = system: H3K27me3 in HUDEP-2 cells; experiment: Western blotting of H3K27me3; type: cell-based, human; settings: peer review file
Method: Preparation of cell lysates and western blotting were performed as described previously. Protein from cells lysates in lysis buffer (50 mM Tris-HCl (pH 7.5), 150 mM NaCl, 5 mM EDTA, 0.1% NP-40, 1 mM dithiothreitol) were separated by sodium dodecyl sulfate–polyacrylamide gel electrophoresis (SDS-PAGE) and transferred to a polyvinylidene difluoride (PVDF) membrane (Millipore) by electroblotting. The membranes incubated with primary antibodies overnight at 4 °C and secondary antibodies for 1 h at room temperature. The immune complexes were detected with the Immobilon Western Chemiluminescent HRP Substrate (Millipore). Luminescence was analyzed on a FUSION SOLO S (Vilber). Western blot bands were visualized using Evolution Capt software (M&S Instruments Inc.). Primary antibodies used were anti-G9a (1:1000, CST, #3306), anti–α-tubulin (1:5000, Abcam, ab18251), anti-H3K9me2 (1:3000, Abcam, ab1220), anti-H3 (1:5000, Abcam, ab1791), anti-H3K27me3 (1:3000, Sigma, 07-449), anti-GLP (1:1000, CST, #35005), anti-FLAG (100 ng/ml, Fujifilm, 01422383), anti-His (1:5000, MBL, PM032), anti-BCL11A (1:1000, abcam, ab19487), anti-ZBTB7A (1:1000, CST, #50565), anti-CHD3 (1:1000, Novus Biologicals, NB100-60412), and anti-CHD4 (1:1000, abcam, ab240640). Uncropped scans of all of the blots are available in Source Data file.

EZH1 = EZH1 (Homo sapiens, UniProt Q92800); experiment: biochemical
[2] = Liver microsomal stability assay, monkey; type: in vitro ADME; settings: for Metabolic stability, % remaining of RK-701: Monkey
Method: [Human/Rat] Liver microsome analyses (human, rat) were performed in triplicate by the Sumika Chemical Analysis Service (SCAS) according to the standard protocols. […] [Dog/Monkey] Liver microsome analyses (dog, monkey) were performed in duplicate by RIKEN according to the same protocols as SCAS.

[3] = system: bone marrow cells of rats; experiment: In vivo micronucleus assay
Description: A negative control group was established, where the animals received orally 5% methylcellulose solution. […] We counted erythrocytes, recorded the frequencies of polychromatic erythrocyte (PCE) cells in 500 erythrocytes and micronucleated polychromatic erythrocyte (MNPCE) cells in 4000 PCE cells, and calculated the average frequency and the standard deviations for each treatment groups.

PRMT1 = PRMT1 (Homo sapiens, UniProt Q99873); experiment: Radioisotope-based methyltransferase assay (selectivity)
MLL2 [4] = biological target: MLL2
[5] = system: γ-globin proteins in CD34+-derived cells; experiment: γ-globin protein quantification by LC-MS/MS in CD34+-derived cells; type: cell-based, human
Method: The extraction and digestion of proteins were performed according to the method reported in a previous paper. Briefly, collected cell pellets, 120 μL of water, 12.5 μL of acetonitrile, and 12.5 μL of 1% formic acid were mixed and sonicated. The mixture was centrifuged to remove the cell debris and the supernatant was collected. Ten microliters of supernatant was reduced by dithiothreitol, alkylated with iodoacetamide, and digested with trypsin/Lys-C mix (Promega) in 50 mM ammonium bicarbonate (pH 8.0) (Sigma) at 37 °C overnight. For protein quantification analysis by LC–MS/MS, 10 pmol of stable isotope–labeled peptides (synthesized by the Support Unit for Bio-Material Analysis, RIKEN Center for Brain Science) were added to the digested sample as an internal standard. The digested sample was stored at −25 °C until analysis. The trypsinized sample was applied to an EASY-nLC 1000 liquid chromatograph (Thermo Fisher Scientific) and Q-Exactive mass spectrometer (Thermo Fisher Scientific) equipped with a nanospray ion source (Thermo Fisher Scientific). […]
Protein quantification was performed using Vanquish UHPLC (Thermo Fisher Scientific) and TSQ-Vantage EMR (Thermo Fisher Scientific) with a HESI-II ion source (Thermo Fisher Scientific) in multiple reaction monitoring (MRM) mode. […]

MLL2 [6] = biological target: MLL2 (Homo sapiens, UniProt O14686)
[7] = Dose 10 mg/kg, individual animals
[8] = Dose 30 mg/kg, individual animals
[9] = Dose 100 mg/kg, individual animals
[10] = male rats, oral 2 weeks, 10 mg/kg, Mean ± S.D.
[11] = male rats, oral 2 weeks, 30 mg/kg, Mean ± S.D.
[12] = male rats, oral 2 weeks, 100 mg/kg, Mean ± S.D.

PRMT1, sequence (Q99873 whole entry): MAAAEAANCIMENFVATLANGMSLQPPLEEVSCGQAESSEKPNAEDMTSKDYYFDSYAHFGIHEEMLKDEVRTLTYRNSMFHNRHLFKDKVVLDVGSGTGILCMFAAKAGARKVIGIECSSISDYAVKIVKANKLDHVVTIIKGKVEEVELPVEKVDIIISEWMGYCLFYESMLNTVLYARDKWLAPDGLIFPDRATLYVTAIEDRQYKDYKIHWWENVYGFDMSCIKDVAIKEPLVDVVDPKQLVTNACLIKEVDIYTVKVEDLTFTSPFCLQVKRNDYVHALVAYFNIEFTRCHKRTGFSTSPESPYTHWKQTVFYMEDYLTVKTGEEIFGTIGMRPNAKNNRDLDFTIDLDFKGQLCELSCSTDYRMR
PRMT5/MEP50, sequence (O14744 whole entry): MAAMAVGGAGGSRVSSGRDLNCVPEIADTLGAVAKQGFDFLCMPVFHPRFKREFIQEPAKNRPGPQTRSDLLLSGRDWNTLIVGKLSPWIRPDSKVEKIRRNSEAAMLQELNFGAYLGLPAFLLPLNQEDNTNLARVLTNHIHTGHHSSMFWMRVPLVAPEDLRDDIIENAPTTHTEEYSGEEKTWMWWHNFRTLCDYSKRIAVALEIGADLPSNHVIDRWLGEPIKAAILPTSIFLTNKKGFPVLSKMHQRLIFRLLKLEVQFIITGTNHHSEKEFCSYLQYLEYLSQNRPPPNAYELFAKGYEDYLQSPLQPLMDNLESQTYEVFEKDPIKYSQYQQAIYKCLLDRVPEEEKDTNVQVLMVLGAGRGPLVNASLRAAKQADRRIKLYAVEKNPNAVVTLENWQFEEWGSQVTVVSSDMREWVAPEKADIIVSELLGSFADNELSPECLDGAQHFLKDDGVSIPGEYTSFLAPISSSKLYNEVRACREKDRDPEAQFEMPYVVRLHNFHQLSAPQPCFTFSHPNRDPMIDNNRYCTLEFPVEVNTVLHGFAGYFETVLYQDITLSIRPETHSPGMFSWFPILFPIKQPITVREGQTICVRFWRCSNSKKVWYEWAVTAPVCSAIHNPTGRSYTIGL
PRMT5/MEP50, sequence (Q9BQA1 whole entry partner): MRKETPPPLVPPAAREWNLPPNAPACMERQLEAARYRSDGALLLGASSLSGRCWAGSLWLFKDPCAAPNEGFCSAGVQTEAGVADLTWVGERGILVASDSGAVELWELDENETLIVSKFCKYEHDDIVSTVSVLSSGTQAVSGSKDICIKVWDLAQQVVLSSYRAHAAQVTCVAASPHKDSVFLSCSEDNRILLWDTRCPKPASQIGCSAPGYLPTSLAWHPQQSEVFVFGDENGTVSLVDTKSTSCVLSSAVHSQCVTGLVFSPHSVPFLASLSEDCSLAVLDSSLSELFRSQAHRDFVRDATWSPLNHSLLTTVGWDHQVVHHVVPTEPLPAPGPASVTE
MLL2 (Homo sapiens, UniProt O14686), sequence (O14686 5319-5537): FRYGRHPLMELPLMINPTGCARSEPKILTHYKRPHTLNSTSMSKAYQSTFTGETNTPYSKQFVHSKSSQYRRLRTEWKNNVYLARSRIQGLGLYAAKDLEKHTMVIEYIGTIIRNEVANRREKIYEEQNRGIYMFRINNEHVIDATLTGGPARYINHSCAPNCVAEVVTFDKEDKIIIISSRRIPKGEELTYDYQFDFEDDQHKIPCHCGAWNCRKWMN
MLL2 (Homo sapiens, UniProt O14686), sequence (Q9C005 whole entry, further chain): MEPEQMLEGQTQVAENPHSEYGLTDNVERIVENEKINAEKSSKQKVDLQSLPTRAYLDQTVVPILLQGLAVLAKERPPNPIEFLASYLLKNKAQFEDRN
MLL2 (Homo sapiens, UniProt O14686), sequence (Q15291 whole entry, further chain): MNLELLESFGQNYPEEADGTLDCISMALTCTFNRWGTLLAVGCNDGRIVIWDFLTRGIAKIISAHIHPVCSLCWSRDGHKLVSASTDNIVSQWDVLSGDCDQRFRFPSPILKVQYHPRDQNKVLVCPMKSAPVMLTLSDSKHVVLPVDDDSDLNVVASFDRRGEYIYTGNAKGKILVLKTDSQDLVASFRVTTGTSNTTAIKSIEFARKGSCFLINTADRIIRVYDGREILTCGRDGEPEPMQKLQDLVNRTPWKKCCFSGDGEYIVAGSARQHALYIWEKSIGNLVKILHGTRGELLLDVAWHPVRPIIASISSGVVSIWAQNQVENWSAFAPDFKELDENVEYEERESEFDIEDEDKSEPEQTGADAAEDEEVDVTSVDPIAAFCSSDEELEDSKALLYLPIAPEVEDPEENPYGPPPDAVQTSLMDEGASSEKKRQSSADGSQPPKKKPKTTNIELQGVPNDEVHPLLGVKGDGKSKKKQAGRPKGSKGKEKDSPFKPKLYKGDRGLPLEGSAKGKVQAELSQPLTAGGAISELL
MLL2 (Homo sapiens, UniProt O14686), sequence (Q9UBL3 whole entry, further chain): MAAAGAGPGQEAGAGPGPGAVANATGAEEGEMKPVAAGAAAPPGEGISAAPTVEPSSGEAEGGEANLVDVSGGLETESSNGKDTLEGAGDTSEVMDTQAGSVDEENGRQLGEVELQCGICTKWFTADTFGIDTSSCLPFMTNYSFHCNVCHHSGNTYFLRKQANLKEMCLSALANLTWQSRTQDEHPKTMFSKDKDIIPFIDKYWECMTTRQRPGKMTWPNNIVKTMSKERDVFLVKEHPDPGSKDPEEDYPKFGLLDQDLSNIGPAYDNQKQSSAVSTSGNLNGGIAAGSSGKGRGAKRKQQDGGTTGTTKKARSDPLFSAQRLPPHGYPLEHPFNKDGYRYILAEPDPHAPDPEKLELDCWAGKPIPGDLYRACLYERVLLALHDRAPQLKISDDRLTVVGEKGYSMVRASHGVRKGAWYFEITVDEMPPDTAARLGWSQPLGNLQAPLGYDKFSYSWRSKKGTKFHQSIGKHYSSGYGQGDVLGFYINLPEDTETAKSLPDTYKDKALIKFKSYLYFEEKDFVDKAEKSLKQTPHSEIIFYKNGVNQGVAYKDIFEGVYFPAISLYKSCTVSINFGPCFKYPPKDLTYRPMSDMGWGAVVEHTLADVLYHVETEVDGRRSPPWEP
MLL2, sequence (O14686 5319-5537): as the sequence (O14686 5319-5537) above
MLL2, sequence (Q9C005 whole entry, further chain): as the sequence (Q9C005 whole entry, further chain) above
MLL2, sequence (Q15291 whole entry, further chain): as the sequence (Q15291 whole entry, further chain) above
MLL2, sequence (Q9UBL3 whole entry, further chain): as the sequence (Q9UBL3 whole entry, further chain) above

## Cc1c(C(=O)NC(CCC2CC2)C(=O)Nc2ccc(C#N)cc2)[nH]c2c1C(=O)CC(C)(C)C2 (centres unmarked) [RK-701]
PRMT5/MEP50
  IC50: > 100 µM
[1]; 0.1 µM
  H3K27me3: no effect on H3K27me3
[1]
  H3K27me3: slightly decrease H3K27me3 only at high
EZH1
  IC50: > 100 µM
[2]; Time 5, replicate values
  Metabolic stability, % remaining of RK-701: 117%
[2]; Time 10, replicate values
  Metabolic stability, % remaining of RK-701: 94.6%
[2]; Time 20, replicate values
  Metabolic stability, % remaining of RK-701: 60%
[2]; Time 30, replicate values
  Metabolic stability, % remaining of RK-701: 44.3%
[2]; Time 45, replicate values
  Metabolic stability, % remaining of RK-701: 26%
[2]; Time 60, replicate values
  Metabolic stability, % remaining of RK-701: 19.4%
[2]; monkey, liver microsomes, Metabolic stability, % remaining of RK-701, Monkey, Time 5, replicate values
  remaining at 5 min, 1 µM: 106%
[2]; monkey, liver microsomes, Metabolic stability, % remaining of RK-701, Monkey, Time 10, replicate values
  remaining at 10 min, 1 µM: 85.8%
[2]; monkey, liver microsomes, Metabolic stability, % remaining of RK-701, Monkey, Time 20, replicate values
  remaining at 20 min, 1 µM: 57.4%
[2]; monkey, liver microsomes, Metabolic stability, % remaining of RK-701, Monkey, Time 30, replicate values
  remaining at 30 min, 1 µM: 42.4%
[2]; monkey, liver microsomes, Metabolic stability, % remaining of RK-701, Monkey, Time 45, replicate values
  remaining at 45 min, 1 µM: 24.2%
[2]; monkey, liver microsomes, Metabolic stability, % remaining of RK-701, Monkey, Time 60, replicate values
  remaining at 60 min, 1 µM: 16.8%
[2]; monkey, liver microsomes, read-out: Metabolic stability in liver microsomes CLint
  microsomal CLint at 1 μM: 67 µL/min/mg
[3]; [7]
  MNPCE (%): 0.15% and 0.18% and 0.13% and 0.23%
  No. of PCE in 500 erythrocytes: 331 and 285 and 278 and 305 and 288
  Number of MNPCE in 4000 PCE: 6 and 7 and 5 and 9
  PCE (%): 66.2% and 57% and 55.6% and 61% and 57.6%
[3]; [8]
  MNPCE (%): 0.08% and 0.1%
  No. of PCE in 500 erythrocytes: 299 and 308 and 294 and 330 and 306
  Number of MNPCE in 4000 PCE: 3 and 4
  PCE (%): 59.8% and 61.6% and 58.8% and 66% and 61.2%
[3]; [9]
  MNPCE (%): 0.13% and 0.1% and 0.18% and 0.15%
  No. of PCE in 500 erythrocytes: 258 and 313 and 314 and 323 and 328
  Number of MNPCE in 4000 PCE: 5 and 4 and 7 and 6
  PCE (%): 51.6% and 62.6% and 62.8% and 64.6% and 65.6%
[3]; [10]
  MNPCE (%): 0.17 ± 0.04%
  No. of PCE in 500 erythrocytes: 297 ± 21
  PCE (%): 59.5 ± 4.2%
[3]; [11]
  MNPCE (%): 0.09 ± 0.01%
  No. of PCE in 500 erythrocytes: 307 ± 14
  Number of MNPCE in 4000 PCE: 4 ± 1
  PCE (%): 61.5 ± 2.8%
[3]; [12]
  MNPCE (%): 0.13 ± 0.03%
  No. of PCE in 500 erythrocytes: 307 ± 28
  Number of MNPCE in 4000 PCE: 5 ± 1
  PCE (%): 61.4 ± 5.6%
[3]; male rats, oral once a day 2 weeks, 10 mg/kg, Mean ± S.D.
  Number of MNPCE in 4000 PCE: 7 ± 1
[3]; rats, oral, up to 100 mg/kg, two weeks
  formation of micronuclei in bone marrow cells: did not cause the formation of micronuclei
PRMT1
  IC50: > 100 µM
MLL2 [4]
  IC50: > 100 µM

## NC(=O)NO [Hydroxyurea, hydroxyurea]
[5]; day 11, 10 μM
  Percentage of γ-globin proteins relative to total β-like globin proteins: 8.1% and 10.3%
[5]; day 11, 50 μM
  Percentage of γ-globin proteins relative to total β-like globin proteins: 8.1% and 10.3% and 14.3%

## Nc1ncnc2c1ncn2[C@@H]1O[C@H](CSCC[C@H](N)C(=O)O)[C@@H](O)[C@H]1O [SAH, S-(5'-Adenosyl)-L-homocysteine, reference compound]
MLL2 [6]
  IC50: 11.6 µM
